Results: publication PMC9916441, “Resveratrol Derivative Exhibits Marked Antiproliferative Actions, Affecting Stemness in Pancreatic Cancer Cells” (International Journal of Molecular Sciences, 2023)
One block for each compound: values may come before it.

Columns and labels:
[1] = tested on: AsPC-1; experiment: Colony formation assay; assay type: cell-based, human; settings: AsPC-1, 20 µM, 72 h treatment
Procedure: (§1) A colony formation assay was performed as previously described. Briefly, the PC cells were seeded in 6-well plates, incubated for 24 h, and then treated for 72 h with 20 μM DF5, DF12, and RSV or with vehicle (DMSO) as indicated. After 4 days, following methanol fixation and crystal violet staining, the colonies of at least 30 cells were counted.

[2] = tested on: BxPC-3; experiment: Colony formation assay; assay type: cell-based, human; settings: BxPC-3, 20 µM, 72 h treatment
Procedure: as §1

[3] = tested on: Capan-2; experiment: Colony formation assay; assay type: cell-based, human; settings: Capan-2, 20 µM, 72 h treatment
Procedure: as §1

[4] = tested on: AsPC-1; experiment: MTT cell viability assay; assay type: cell-based, human; settings: for IC50: Homo sapiens, ASPC1, AsPC-1, MTT, 72 h
Procedure: (§2) The cell viability was assessed using MTT assay, as previously described. Briefly, the cells were seeded in 96-well plates (4 × 10^3 cells/well) and were treated for 72 h with different concentrations of RSV, DF5, and DF12. The IC50 values were extrapolated from dose–response curves and calculated using the CompuSyn software (https://www.combosyn.com/). The selectivity index (SI) values were calculated as ratios between the IC50 values of compounds in normal HFF-1 fibroblast cells and the IC50 values of the same compounds in the PC cell lines.

[5] = tested on: BxPC-3; experiment: MTT cell viability assay; assay type: cell-based, human; settings: for IC50: Homo sapiens, BxPC-3, MTT, 72 h
Procedure: as §2

[6] = tested on: Capan-2; experiment: MTT cell viability assay; assay type: cell-based, human; settings: for IC50 / viability at 50 µM: Homo sapiens, Capan-2, MTT; for IC50: 72 h; for viability at 50 µM: plateau reached already at 50 µM, read-out: residual viability
Procedure: as §2

[7] = tested on: p-SER^139H2AX; experiment: Western blot of phospho-H2AX (γH2AX) in PC cell lines; assay type: cell-based, human
Procedure: (§3) The PC cell lines treated with 50 μM DF5, RSV, or with vehicle (DMSO) were lysed in a cell lysis buffer containing PMSF, protease inhibitors cocktails, and phosphatase inhibitors. The protein lysate quantification and immunoblot analyses were performed as previously described.

[8] = tested on: AsPC-1; experiment: Flow cytometry immunophenotyping of CD133+EpCAM+ cancer stem-like subpopulation; assay type: cell-based, human; settings: AsPC-1, 20 μM, 72 h
Procedure: (§4) The expression of CD133 and EpCAM surface antigens was evaluated using flow cytometry. Briefly, the PC cells were seeded in 6-well plates and treated for 72 h with 20 μM DF5, RSV, or with vehicle (DMSO). After treatment, the cells were collected in PBS and stained at room temperature in the dark for 30 min with PE-CD133, FITC-EpCAM antibodies, and Reactive Dye. After labeling, the samples were washed in PBS by centrifugation at 1500 rpm for 10 min, to remove excess antibodies. Flow cytometer performance, stability, and data reproducibility were daily checked by using the CS&T quality control Module (BD Biosciences). The gating strategy and the evaluation of non-specific fluorescence was determined using fluorescence minus one (FMO) controls. The data were acquired with FACSVerse analyzer equipped with a volumetric count module (BD Biosciences, San Jose, CA, USA) and are expressed as the percentage of positive cells.

[9] = tested on: BxPC-3; experiment: as above; assay type: cell-based, human; settings: BxPC-3, 20 μM, 72 h
Procedure: as §4

[10] = tested on: Capan-2; experiment: as above; assay type: cell-based, human; settings: Capan-2, 20 μM, 72 h
Procedure: as §4

[11] = tested on: cyclin B1/CDK1 complex; experiment: Western blot of cyclin B1, Cdc2/Cdk1 and p-Cdc2 (Thr161) in PC cell lines; assay type: cell-based, human; settings: 50 μM, BxPC-3
Procedure: as §3

[12] = tested on: poly-(ADP-ribose) polymerase (PARP); experiment: Western blot of PARP cleavage in PC cell lines; assay type: cell-based, human; settings: vs untreated cells
Procedure: as §3

[13] = design: method as in PMID 25224342; settings: based on solubility of ref 43; cited from earlier work
[14] = tested on: AsPC-1; experiment: Apoptosis assay, annexin-V staining by flow cytometry; assay type: cell-based, human; settings: 24 h
Procedure: (§5) The apoptosis assay was performed essentially as previously described. the analyses were performed using a CytoFLEX flow cytometer, using the FL1 detector in linear mode and the CytoExpert software (Beckmann Coulter, Milano, Italy).

[15] = tested on: BxPC-3; experiment: as above; assay type: cell-based, human; settings: 24 h
Procedure: as §5

[16] = tested on: Capan-2; experiment: as above; assay type: cell-based, human; settings: 24 h
Procedure: as §5

[17] = tested on: normal HFF-1 fibroblast cells; experiment: MTT cell viability assay on normal fibroblasts; assay type: cell-based, human; settings: 72 h
Procedure: as §2

[18] = tested on: AsPC-1, BxPC-3 and Capan-2 PC cell lines; experiment: Cell growth, trypan blue exclusion test; assay type: cell-based, human; settings: 50 μM, counted at 24, 48 and 72 h, three PC cell lines, vs control
Procedure: The cell counting was performed using the trypan blue exclusion test. Briefly, PC cells were seeded in 24-well plates (5 × 10^4 cells/well) and then were treated with 50 μM of DF5, RSV, or with vehicle and counted at 24, 48, and 72 h.

[19] = tested on: AsPC-1, BxPC-3 and Capan-2 PC cell lines; experiment: Cell cycle analysis by flow cytometry; assay type: cell-based, human; settings: 50 μM, 24 h
Procedure: To perform the cell cycle analysis, the PC cells (3 × 10^5) were collected, fixed in 70% cold ethanol, and kept at 4 °C overnight. The collected cells were incubated at 4 °C overnight in 5 μg/mL PI (final concentration) and 100 μg/mL RNAse (final concentration). The cell cycle profiles were analyzed as previously described.

[20] = tested on: Cyclin D3; experiment: Western blot of cyclin D3 in PC cell lines; assay type: cell-based, human; settings: 50 μM
Procedure: as §3

IC50 [4]: 11.1 µM
IC50 [5]: 18.3 µM
Structure (SMILES): Oc1ccc(/C=C/c2ccc3ccccc3c2)cc1 [DF12]
effect on clonogenicity (colony formation) [1]: relevant effects on clonogenic capacity
effect on clonogenicity (colony formation) [2]: relevant effects on clonogenic capacity
effect on clonogenicity (colony formation) [3]: marginal effects
IC50 [6]: 58.1 µM
viability at 50 µM [6]: > 50%

IC50 [4]: 29 µM
IC50 [5]: 48.7 µM
Structure (SMILES): Oc1ccc(/C=C/c2cc(O)cc(O)c2)cc1 [RSV, 3,5,4′-trihydroxy-trans-stilbene, reference compound]
activation (phosphorylation) of H2AX ([7]; AsPC-1, 50 μM): increased H2AX phosphorylation
activation (phosphorylation) of H2AX ([7]; BxPC-3, 50 μM): to a lesser extent
activation (phosphorylation) of H2AX ([7]; Capan-2, 50 μM): no activation of H2AX
effect on percentage of CD133+EpCAM+ cancer stem-like subpopulation [8]: did not affect this subpopulation
effect on percentage of CD133+EpCAM+ cancer stem-like subpopulation [9]: more marked effect
effect on percentage of CD133+EpCAM+ cancer stem-like subpopulation [10]: did not affect this subpopulation
effect on expression of the cyclin B1/CDK1 complex [11]: much less evident
effect on clonogenicity (colony formation) [1]: significantly, but modestly, affected clonogenic activity
effect on clonogenicity (colony formation) [2]: significantly, but modestly, affected clonogenic activity
effect on clonogenicity (colony formation) [3]: significantly, but modestly, affected clonogenic activity
effect on cleaved:uncleaved PARP ratio ([12]; AsPC-1, 50 μM): affected the PARP cleavage ratio
effect on cleaved:uncleaved PARP ratio ([12]; BxPC-3, 50 μM): small
effect on cleaved:uncleaved PARP ratio ([12]; Capan-2, 50 μM): negligible
Classification (water solubility) [13]: PI (PI (Practically Insoluble))
apoptosis induction (Annexin V+ cells) ([14]; AsPC-1, 20 μM): statistically significant apoptosis
apoptosis induction (Annexin V+ cells) ([14]; AsPC-1, 50 μM): significant but less marked increment of apoptotic cells
apoptosis induction (Annexin V+ cells) ([15]; BxPC-3, 20 μM): neither compound affected apoptosis
apoptosis induction (Annexin V+ cells) ([15]; BxPC-3, 50 μM): significant but less marked increment of apoptotic cells
apoptosis induction (Annexin V+ cells) ([16]; Capan-2, 20 μM): statistically significant apoptosis
apoptosis induction (Annexin V+ cells) ([16]; Capan-2, 50 μM): significant but less marked increment of apoptotic cells
toxicity against normal HFF-1 fibroblast cells ([17]; up to 100 μM): negligible toxicity
IC50 ([17]; Homo sapiens, normal HFF-1 fibroblasts, 100 μM highest concentration used): > 100 µM
effect on cell growth (cell number) [18]: significantly, drastically, and comparably affected cell growth
effect on cells in G0/G1 phase ([19]; across the three PC cell lines, vs untreated cells): statistically significant accumulation of cells at the G0/G1 phase
effect on cells in G2/M phase ([19]; three PC cell lines, in Capan-2 it did not reach statistical significance): drastic depletion of cells in the G2/M phase
Selectivity Index (SI) AsPC-1 ([4]; SI = IC50 on normal HFF-1 fibroblast cells/IC50 on AsPC-1): > 3.45
Selectivity Index (SI) BxPC-3 ([5]; SI = IC50 on normal HFF-1 fibroblast cells/IC50 on BxPC-3): > 2.05
IC50 [6]: > 100 µM
viability at 50 µM [6]: > 50%
Selectivity Index (SI) Capan-2 ([6]; SI = IC50 on normal HFF-1 fibroblast cells/IC50 on Capan-2): > 1.00
effect on cyclin D3 expression [20]: present but less marked
